Laboratory results published in patent publication US6924306B2, “Method for treating ocular hypertension” (priority 2000, dated 2005).
Where two headings read alike, the source gives them in different places.

How the values were obtained:
[1] = biological target: T1, large-conductance calcium-activated potassium (maxi-K) channels from bovine aortic smooth muscle (Bos taurus, UniProt Q28204); assay: Patch clamp recordings of maxi-K channel currents in excised inside-out membrane patches; format: biochemical; details: for block of channel activity / effect on channel open probability: 1 μM
T1 construct: membrane patches excised from cultured bovine aortic smooth muscle cells; endogenous in cells; host or cells: cultured bovine aortic smooth muscle cells
T1 sequence (Q28204 whole entry): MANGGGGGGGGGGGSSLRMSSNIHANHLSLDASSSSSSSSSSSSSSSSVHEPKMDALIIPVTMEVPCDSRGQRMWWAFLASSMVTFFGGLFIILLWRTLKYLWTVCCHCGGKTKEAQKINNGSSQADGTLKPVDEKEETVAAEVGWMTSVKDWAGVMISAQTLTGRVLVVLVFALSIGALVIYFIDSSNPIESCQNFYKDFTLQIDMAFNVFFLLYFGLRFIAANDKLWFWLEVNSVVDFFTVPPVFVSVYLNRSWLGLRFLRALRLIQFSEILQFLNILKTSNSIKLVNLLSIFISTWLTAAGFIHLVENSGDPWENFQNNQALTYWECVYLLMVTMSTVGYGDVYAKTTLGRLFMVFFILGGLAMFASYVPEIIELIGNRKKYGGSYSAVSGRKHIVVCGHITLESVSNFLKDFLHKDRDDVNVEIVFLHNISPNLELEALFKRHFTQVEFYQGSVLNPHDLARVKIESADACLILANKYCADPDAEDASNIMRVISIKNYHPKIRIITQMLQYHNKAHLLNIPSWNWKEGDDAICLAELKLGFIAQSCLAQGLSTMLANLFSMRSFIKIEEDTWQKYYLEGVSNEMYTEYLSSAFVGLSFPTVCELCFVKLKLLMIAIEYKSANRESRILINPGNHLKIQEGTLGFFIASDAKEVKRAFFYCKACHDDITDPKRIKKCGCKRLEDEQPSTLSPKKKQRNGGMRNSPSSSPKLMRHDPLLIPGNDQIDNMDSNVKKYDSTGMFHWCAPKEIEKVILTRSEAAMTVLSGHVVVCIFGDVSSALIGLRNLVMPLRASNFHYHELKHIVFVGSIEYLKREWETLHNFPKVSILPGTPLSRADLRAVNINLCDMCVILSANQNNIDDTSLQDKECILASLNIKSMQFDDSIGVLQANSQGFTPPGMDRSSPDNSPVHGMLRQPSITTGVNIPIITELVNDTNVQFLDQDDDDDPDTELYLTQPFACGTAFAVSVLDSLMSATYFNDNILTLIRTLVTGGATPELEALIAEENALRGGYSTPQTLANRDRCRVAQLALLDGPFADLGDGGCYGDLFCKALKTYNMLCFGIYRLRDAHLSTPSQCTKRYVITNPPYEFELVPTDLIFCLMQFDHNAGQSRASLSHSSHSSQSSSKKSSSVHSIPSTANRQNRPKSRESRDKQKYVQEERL
T1 sequence (Q28067 whole entry partner): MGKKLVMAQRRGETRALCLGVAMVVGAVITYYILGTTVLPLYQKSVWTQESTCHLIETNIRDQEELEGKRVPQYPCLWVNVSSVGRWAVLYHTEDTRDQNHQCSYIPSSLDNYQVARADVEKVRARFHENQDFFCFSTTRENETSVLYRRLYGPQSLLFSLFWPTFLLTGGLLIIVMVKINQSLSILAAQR
Description: Pipettes were typically filled with solutions containing (mM): 150 KCl, 10 Hepes (4-(2-hydroxyethyl)-1-piperazine […]), 1 Mg, 0.01 Ca, and adjusted to pH 7.20 with 3.7 mM KOH. After forming a high resistance (>10^9 ohms) seal between the sarcolemmal membrane and the pipette, the pipette was withdrawn from the cell, forming an excised inside-out membrane patch. […] An AXOPATCH 1C amplifier (Axon Instruments, Foster City, Calif.) with a CV-4 headstage was used to control the voltage and to measure the currents flowing across the membrane patch. The input to the headstage was connected to the pipette solution with a Ag/AgCl wire, and the amplifier ground was connected to the bath solution with a Ag/AgCl wire covered with a tube filled with agar dissolved in 0.2 M KCl. Maxi-K channels were identified by their large single channel conductance (˜250 pS) and sensitivity of channel open probability to membrane potential and intracellular calcium concentration.
Data were stored on a RACAL STORE 4DS FM tape recorder (Racal Recorders, Vienna, Va.) or on digital video tape using a video casette recorder after digitizing the signal with VR-10 (Instrutech Corp., Belmont, N.Y.) PCM video encoder. The signal was also recorded on chart paper with a GOULD 2400S chart recorder (Gould Inc., Cleveland, Ohio). For quantitative analysis, the data was played into a DEC 11-73 (Digital Equipment Corp., Maynard, Mass.) after digitization with a DT2782-8D1A analogue to digital converter (Data Translation Inc., Marlboro, Mass.), or played into a Mac IIx or Quadra 700 computer (Apple Computers) after digitization with an ITC-16 interface (Instrutech Corp., Belmont, N.Y.).

[2] = biological target: T2, [125I]ChTX receptor in bovine aortic sarcolemma membrane vesicles (Bos taurus, UniProt Q28204); assay: [125I]ChTX binding assay with sarcolemma membrane vesicles; details: for inhibition at 10 µM: read-out: inhibition of [125I]ChTX binding
T2 construct: bovine aortic sarcolemma membrane vesicles; from tissue; host or cells: bovine aortic sarcolemma membrane vesicles
T2 sequence (Q28204 whole entry): as the sequence (Q28204 whole entry) above
T2 sequence (Q28067 whole entry partner): as the sequence (Q28067 whole entry partner) above
Description: The interaction of [^125I]ChTX with bovine aortic sarcolemma membrane vesicles was determined under conditions as described (Vazquez et al., 1989, J. Biol. Chem. 264, 20902-20909). Briefly, sarcolemma membrane vesicles were incubated in 12×75 polystyrene tubes with ca. 25 pM [^125I]ChTX (2200 Ci/mmol), in the absence or presence of test compound, in a media consisting of 20 mM NaCl, 20 mM Tris-HCl pH 7.4, 0.1% bovine serum albumin, 0.1% digitonin. Nonspecific binding was determined in the presence of 10 nM ChTX. Incubations were carried out at room temperature until ligand binding equilibrium is achieved at ca. 90 min. At the end of the incubation period, samples were diluted with 4 mL ice-cold 100 mM NaCl, 20 mM Hepes-Tris pH 7.4 and filtered through GF/C glass fiber filters that have been presoaked in 0.5% polyethylenimine. Filters were rinsed twice with 4 mL ice-cold quench solution. Radioactivity associated with filters was determined in a gamma counter. Specific binding data in the presence of each compound (difference between total binding and nonspecific binding) was assessed relative to an untreated control.

[3] = concentrations from 1 nM to 100 μM

Q: How did the IC50 [1] turn out when `CC(C)=CCOC(C)(C)[C@@H]1CC2OC23[C@H](CC[C@@]2(C)[C@H]3CC[C@H]3Cc4c([nH]c5ccccc45)[C@@]32C)O1` (stereo partly drawn) [Compound A] was run?
A: Its IC50 is about 100 nM.

Q: And the “strength as blocker of maxi-K channels compared with Compound C” value [1]?
A: Its value is “weaker”.

Q: And the “block of maxi-K channels” value ([1]; 10 nM)?
A: Its value is “blocked a small fraction of channel activity”.

Q: What about the “block of channel activity” value ([1]; 100 nM) of the same compound?
A: Its value is “approximately one half”.

Q: And the “block of channel activity / effect on channel open probability” value [1]?
A: Its value is “nearly all”.

Q: What about the inhibition at 10 µM [2] of the same compound?
A: Its inhibition at 10 µM is 2%.

Q: For `CC(C)=CCOC(C)(C)[C@H]1O[C@H]2CC[C@]3(C)[C@@]4(C)c5[nH]c6ccc(CC=C(C)C)cc6c5C[C@@H]4CC[C@@]3(O)C23OC3[C@@H]1O` (stereo partly drawn) [Compound B], which IC50 [1] is on record?
A: The IC50 was under 1 nM.

Q: And the Ki [1]?
A: Its Ki is under 1 nM.

Q: And the “block of maxi-K channels” value ([1]; 1 nM)?
A: The value was “nearly complete block”.

Q: For `CC(C)=CCc1cccc2[nH]c3c(c12)C[C@@H]1CC[C@@]2(O)C45OC4[C@@H]4OC(C=C(C)C)OC(C)(C)[C@H]4OC5=CC[C@]2(C)[C@@]31C` (stereo partly drawn) [Compound C], which IC50 [1] is on record?
A: The IC50 was under 10 nM.

Q: And the “block of maxi-K channels” value ([1]; 10 nM)?
A: The value was “rapid and complete block”.

Q: And the “reversal of block during washout” value ([1]; 10 nM, brief (~10 min) washout)?
A: The value was “not reversed”.

Q: What about the inhibition at 10 µM [2] of the same compound?
A: The inhibition at 10 µM was 29%.

Q: Which results are given for `CC(C)(O)[C@@H]1CC(O)C2(C(=O)O)C(CC[C@@]3(C)[C@H]2CC[C@H]2Cc4c([nH]c5ccccc45)[C@@]23C)O1` (stereo partly drawn) [Compound D, hydroxypaspalinic acid]?
A: IC50 [1]: ~1000 nM; strength as blocker of maxi-K channels compared with Compound C [1]: weaker; reduction in channel open probability ([1]; 10 nM): < 50%; block of channel activity / effect on channel open probability [1]: complete block was not observed; effect on [125I]ChTX binding [2, 3]: did not have any effect

Q: With `COC(=O)C12C(O)C[C@@H](C(C)(C)O)OC1CC[C@@]1(C)[C@H]2CC[C@H]2Cc3c([nH]c4ccccc34)[C@@]21C` (stereo partly drawn) [Compound E, methyl hydroxypaspalinate] as the compound, how does the IC50 [1] read?
A: The IC50 was over 10000 nM.

Q: And the “strength as blocker of maxi-K channels compared with Compound C” value [1]?
A: Its value is “weaker”.

Q: What about the “block of channel activity / effect on channel open probability” value [1] of the same compound?
A: Its value is “no significant effect”.

Q: What about the “block of channel activity” value ([1]; 10 μM, slowly increasing over 5-10 minutes) of the same compound?
A: Its value is “incomplete block”.

Q: And the “effect on [125I]ChTX binding” value [2, 3]?
A: The value was “did not affect”.

Q: Which results are given for `CC1(C)ON=C2C=C3[C@H](CC[C@@]4(C)[C@@]3(O)CC[C@H]3Cc5c([nH]c6ccccc56)[C@@]34C)O[C@@H]21` [Compound F, Paxizoline]?
A: decrease in channel activity ([1]; 10 nM): ~50%; IC50 ([1]; excised inside-out patches, compound added to bath, read-out: [50% CHANNEL BLOCK]): ~10 nM; effect on [125I]ChTX binding ([2]; concentrations above 5 μM): concentration-dependent inhibition; effect on amount of toxin bound to its receptor ([2]; range of 50 nM to 2 μM): small increase; maximum level of inhibition (saturation) ([2]; tested from 1 nM to 100 μM): ca. 32 % control

Q: `CC(C)=CC1O[C@H]2C3OC34C(=CC[C@]3(C)[C@@]5(C)c6[nH]c7cccc(CC8OC8(C)C)c7c6C[C@@H]5CC[C@@]43O)O[C@@H]2C(C)(C)O1` (stereo partly drawn) [Compound G] was tested. Which IC50 [1] did it give?
A: Its IC50 is under 0.1 nM.

Q: And the channels blocked ([1]; 0.1 nM)?
A: Its channels blocked is 82%.

Q: And the channels blocked ([1]; 1 nM)?
A: Its channels blocked is 98.6%.

Q: And the channel block ([1]; 10 nm)?
A: The channel block was over 99%.

Q: What about the inhibition at 10 µM [2] of the same compound?
A: The inhibition at 10 µM was 35%.
